Data from US11999727B2 (Tango Therapeutics, Inc., priority 2020, dated 2024).

Columns and labels:
PRMT5 [1] = target: T1, PRMT5 (Homo sapiens, UniProt O14744); assay: PRMT5 biochemical IC50 assay with SAM as cofactor; conditions: PRMT5, SAM as cofactor; read-out: SAM IC50
T1 construct: purchased Viva (custom protein)

PRMT5 [2] = target: T1, PRMT5; assay: PRMT5 biochemical IC50 assay with no cofactor; conditions: PRMT5, no cofactor
Source text: Table 1 indicates IC50 values (μM) against PRMT5 for exemplary compounds in the presence of SAM as cofactor, with no cofactor, and with MTA as cofactor, respectively (columns 4-6). […] Ki values can be calculated from the IC50 values as described in the Examples section. As detailed in the Examples section, for the assay performed in the presence of SAM, IC50=Ki×1.5 (Ki=IC50/1.5).

PRMT5 [3] = target: T1, PRMT5; assay: PRMT5 biochemical IC50 assay with MTA as cofactor; conditions: PRMT5, MTA as cofactor; read-out: MTA IC50
[4] = tested on: HAP1 MTAP-intact cell line; assay: SDMA in-cell western assay, HAP1 MTAP-intact; type: cell-based; conditions: Homo sapiens, HAP1, SDMA in-cell western, HAP1 MTAP-intact; read-out: MTAP HAP1 intact IC50
Method in brief: (§1)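 MTAP-null vs endogenous-MTAP HAP1 isogenic cells; in-cell western SDMA readout; IC50 per line.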

[5] = tested on: HAP1 MTAP-deleted cell line; assay: SDMA in-cell western assay, HAP1 MTAP-deleted; type: cell-based; conditions: for IC50: Homo sapiens, HAP1, SDMA in-cell western, HAP1 MTAP-deleted; for MTAP intact/deleted ratio: SDMA in-cell western
Method in brief: as §1

[6] = tested on: HAP1 MTAP-deleted cell line; assay: Viability assay, MTAP-deleted cell line; type: cell-based; conditions: Homo sapiens, read-out: HAP1 MTAP deleted viability
Source text: Table 1 additionally indicates IC50 values in a viability assay for the MTAP-deleted cell line (column 10), indicating the effect of treatment with compound on cell survival.

[7] = read-out: No Cofactor/ rel IC50
[8] = read-out: HAP 1 MTAP deleted IC50
[9] = IC50 ratio HAP1 MTAP-intact / HAP1 MTAP-deleted
[10] = HAP1, viability, HAP1 MTAP-deleted cell line
[11] = HAP1, viability IC50, MTAP-deleted cell line
[12] = read-out: HAP1 MTAP deleted IC50
[13] = HAP1, viability assay, MTAP-deleted cell line
[14] = HAP1, viability assay, HAP1 MTAP-deleted

T1 sequence (O14744 whole entry): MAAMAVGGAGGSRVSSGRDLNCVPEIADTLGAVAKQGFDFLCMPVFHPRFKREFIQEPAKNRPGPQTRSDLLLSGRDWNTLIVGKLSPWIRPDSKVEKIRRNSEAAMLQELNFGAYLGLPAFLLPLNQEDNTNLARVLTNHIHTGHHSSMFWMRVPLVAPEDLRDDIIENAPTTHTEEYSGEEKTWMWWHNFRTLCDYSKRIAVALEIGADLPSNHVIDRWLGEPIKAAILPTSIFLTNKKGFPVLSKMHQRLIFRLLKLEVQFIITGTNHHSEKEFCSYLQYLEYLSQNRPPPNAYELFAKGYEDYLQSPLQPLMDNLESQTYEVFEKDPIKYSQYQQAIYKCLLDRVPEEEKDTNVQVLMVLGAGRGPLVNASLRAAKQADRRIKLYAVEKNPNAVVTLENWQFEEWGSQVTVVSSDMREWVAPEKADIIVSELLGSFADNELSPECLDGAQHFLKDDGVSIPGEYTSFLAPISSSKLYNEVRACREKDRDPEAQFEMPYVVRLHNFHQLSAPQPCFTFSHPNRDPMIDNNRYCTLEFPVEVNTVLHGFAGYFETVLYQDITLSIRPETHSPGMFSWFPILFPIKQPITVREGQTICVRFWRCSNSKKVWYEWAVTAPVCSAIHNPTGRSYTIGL
T1 sequence (Q9BQA1 whole entry partner): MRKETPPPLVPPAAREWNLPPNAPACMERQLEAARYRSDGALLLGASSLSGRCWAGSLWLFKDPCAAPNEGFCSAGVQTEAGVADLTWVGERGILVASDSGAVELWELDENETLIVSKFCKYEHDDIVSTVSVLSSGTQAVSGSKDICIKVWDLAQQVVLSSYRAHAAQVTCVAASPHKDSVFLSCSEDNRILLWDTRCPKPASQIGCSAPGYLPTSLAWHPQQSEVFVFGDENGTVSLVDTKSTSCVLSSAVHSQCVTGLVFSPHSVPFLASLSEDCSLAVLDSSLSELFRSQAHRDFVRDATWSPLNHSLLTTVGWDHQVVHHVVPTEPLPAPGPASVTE

| SMILES | IC50 (PRMT5 [1]) [nM] | IC50 (PRMT5 [2]; [7]) [nM] | IC50 (PRMT5 [3]) [nM] | IC50 [4] [nM] | IC50 [5, 8] [nM] | MTAP intact/deleted ratio [5, 9] | IC50 [6, 10] [nM] | IC50 (PRMT5 [2]; read-out: No Cofactor/rel IC50) [nM] | IC50 [6, 11] [nM] | IC50 [5, 12] [nM] | MTAP intact/deleted ratio ([5]; IC50 ratio HAP1 MTAP-intact vs HAP1 MTAP-deleted) | IC50 [6, 13] [nM] | IC50 [6, 14] [nM] |
| --- | --- | --- | --- | --- | --- | --- | --- | --- | --- | --- | --- | --- | --- |
| CCc1cc(NC(=O)C(=O)N2C[C@@H](C)CC[C@@H]2c2ccc3sc(C45CC(C4)N(C)C5)nc3c2)cnc1N [Compound 1372] | < 50 | < 50 | < 50 | < 100 | < 100 | A (an IC50 ratio greater than or equal to 10 fold) | < 1000 |  |  |  |  |  |  |
| C[C@@H]1CC[C@@H](c2ccc3c(cnn3CCN(C)C)c2)N(C(=O)C(=O)Nc2cnc(N)c(C3CC3)c2)C1 (single isomer, unassigned) [Compound 1249] | 50 to 500 | < 50 | < 50 | 100 to 1000 | < 100 | A (an IC50 ratio greater than or equal to 10 fold) | < 1000 |  |  |  |  |  |  |
| NC(=O)c1cncc(NC(=O)C(=O)N2C[C@H](c3cc[nH]n3)CC[C@H]2c2ccccc2)c1 (racemic) [Compound 669, rac-5-(2-oxo-2-((2R,5S)-2-phenyl-5-(1H-pyrazol-5-yl)piperidin-1-yl)acetamido)nicotinamide] | > 500 |  | 50 to 500 | > 1000 | > 1000 | C (an IC50 ratio of less than 3 fold) |  | > 500 | > 10000 |  |  |  |  |
| Cc1cc([C@@H]2CC[C@@H](C)CN2C(=O)C(=O)Nc2cnc(N)c(C)c2)ccn1 (single isomer, unassigned) [Compound 608] | < 50 |  | < 50 | 100 to 1000 | < 100 | A (an IC50 ratio greater than or equal to 10 fold) |  | < 50 | < 1000 |  |  |  |  |
| Cc1cc(NC(=O)C(=O)N2C[C@H](C)CC[C@H]2c2cccc(N3CCN(C)CC3)c2)cnc1N (racemic) [Compound 1223, N-(6-amino-5-methylpyridin-3-yl)-2-(5-methyl-2-(3-(4-methylpiperazin-1-yl)phenyl)piperidin-1-yl)-2-oxoacetamide] | 50 to 500 |  | < 50 | 100 to 1000 |  |  |  | 50 to 500 |  | < 100 | A (an IC50 ratio greater than or equal to 10 fold) | < 1000 |  |
| C[C@@H]1CCN(C(=O)C(=O)Nc2cncc(C(N)=O)c2)[C@H](c2ccccc2)C1 (racemic) [Compound 442, 5-(2-(4-methyl-2-phenylpiperidin-1-yl)-2-oxoacetamido)nicotinamide] | 50 to 500 |  | 50 to 500 | > 1000 |  | A (an IC50 ratio greater than or equal to 10 fold) |  | 50 to 500 |  | 100 to 1000 |  | 1000 to 10000 |  |
| C[C@@H]1CC[C@@H](c2cccc(Cl)c2)N(C(=O)C(=O)Nc2cncc(C(N)=O)c2)C1 (racemic) [Compound 174, rac-5-{2-[(2R,5S)-2-(3-Chlorophenyl)-5-methylpiperidin-1-yl]-2-oxoacetamido}pyridine-3-carboxamide] | 50 to 500 |  | < 50 | > 1000 |  | A (an IC50 ratio greater than or equal to 10 fold) |  | 50 to 500 |  | < 100 |  | 1000 to 10000 |  |
| C[C@H]1CN(C(=O)C(=O)Nc2cncc(C(N)=O)c2)[C@H](c2ccc(F)c(F)c2)CC1(F)F (single isomer, unassigned) [Compound 683] | 50 to 500 |  | < 50 | > 1000 | 100 to 1000 | A (an IC50 ratio greater than or equal to 10 fold) |  | 50 to 500 | 1000 to 10000 |  |  |  |  |
| CCc1cc(NC(=O)C(=O)N2C[C@H](C)CC[C@H]2c2ccc(NS(C)(=O)=O)nc2)cnc1N (single isomer, unassigned) [Compound 995] | 50 to 500 |  | 50 to 500 | > 1000 | 100 to 1000 | A (an IC50 ratio greater than or equal to 10 fold) |  | 50 to 500 |  |  |  | > 10000 |  |
| C[C@@H]1CC[C@@H](c2ccc(F)cc2)N(C(=O)C(=O)Nc2cnc(N)c(C(F)F)c2)C1 (racemic) [Compound 867, N-[6-amino-5-(difluoromethyl)-3-pyridyl]-2-[(2R,5S)-2-(4-fluorophenyl)-5-methyl-1-piperidyl]-2-oxo-acetamide] | 50 to 500 |  | 50 to 500 | > 1000 |  | A (an IC50 ratio greater than or equal to 10 fold) |  | 50 to 500 |  | 100 to 1000 |  |  | 1000 to 10000 |
| COc1ncc(NC(=O)C(=O)N2C[C@H](C)CC[C@H]2c2ccc3[nH]c(=O)ccc3c2)cc1C(N)=O (single isomer, unassigned) [Compound 810] | > 500 |  | > 500 | > 1000 |  | B (an IC50 ratio greater than or equal to 3 fold but lower than 10 fold) |  | > 500 |  | > 1000 |  |  | > 10000 |
| Cc1cc(NC(=O)C(=O)N2C[C@H](C)CC[C@H]2c2ccc(C(F)F)nc2)cnc1N (single isomer, unassigned) [Compound 1011] | > 500 |  | > 500 | > 1000 | > 1000 | C (an IC50 ratio of less than 3 fold) |  | > 500 |  |  |  | > 10000 |  |
| Cc1cc(NC(=O)C(=O)N2C[C@H](C)CC[C@H]2c2ccc(-c3ccn[nH]3)s2)cnc1N (racemic) [Compound 556, N-(6-amino-5-methyl-3-pyridyl)-2-[(2R,5S)-5-methyl-2-[5-(1H-pyrazol-5-yl)-2-thienyl]-1-piperidyl]-2-oxo-acetamide] | 50 to 500 |  | 50 to 500 | 100 to 1000 | < 100 | A (an IC50 ratio greater than or equal to 10 fold) |  | 50 to 500 | < 1000 |  |  |  |  |
| CCc1cc(NC(=O)C(=O)N2C[C@H](C)C(F)(F)C[C@H]2c2ccc(C)nc2)cnc1N (single isomer, unassigned) [Compound 935] | > 500 |  | > 500 | > 1000 | > 1000 | C (an IC50 ratio of less than 3 fold) |  | > 500 |  |  |  | > 10000 |  |
| NC(=O)c1cc(NC(=O)C(=O)N2CCCCC2c2ccccc2)cnc1N (stereo not shown) [Compound 126, 2-Amino-5-[[2-oxo-2-(2-phenyl-1-piperidyl)acetyl]amino]pyridine-3-carboxamide] | 50 to 500 | > 500 | 50 to 500 | > 1000 | > 1000 | B (an IC50 ratio greater than or equal to 3 fold but lower than 10 fold) |  |  |  |  |  | > 10000 |  |
| C[C@H]1CC[C@H](c2ccc(N)cc2)N(C(=O)C(=O)Nc2cncc(C(N)=O)c2)C1 (single isomer, unassigned) [Compound 398] | > 500 |  | > 500 | > 1000 |  | B (an IC50 ratio greater than or equal to 3 fold but lower than 10 fold) |  | > 500 |  | > 1000 |  | > 10000 |  |
| Cc1cc(NC(=O)C(=O)N2C[C@H](C)CC[C@H]2c2cccnc2)cnc1N (single isomer, unassigned) [Compound 301] | 50 to 500 |  | < 50 | 100 to 1000 |  | B (an IC50 ratio greater than or equal to 3 fold but lower than 10 fold) |  | 50 to 500 |  | < 100 |  | 1000 to 10000 |  |
| Cc1cc(NC(=O)C(=O)N2C[C@H](C)CC[C@H]2c2ccc(CCN(C)C)cc2)cnc1N (single isomer, unassigned) [Compound 1358] | 50 to 500 | < 50 | < 50 | < 100 | < 100 | A (an IC50 ratio greater than or equal to 10 fold) | < 1000 |  |  |  |  |  |  |
| CCc1cc(NC(=O)C(=O)N2C[C@@H](C)CC[C@@H]2c2ccc3sc(CC(C)N(C)C)nc3c2)cnc1N (mixture of isomers) [Compound 1345, N-(6-amino-5-ethylpyridin-3-yl)-2-((2R,5S)-2-(2-(2-(dimethylamino)propyl)benzo[d]thiazol-5-yl)-5-methylpiperidin-1-yl)-2-oxoacetamide] | 50 to 500 | < 50 | < 50 | < 100 | < 100 | A (an IC50 ratio greater than or equal to 10 fold) | < 1000 |  |  |  |  |  |  |
